Article PMC5748433, “Study on the effect of EMD386088, a 5-HT6 receptor partial agonist, in enhancing the anti-immobility action of some antidepressants in rats” (Naunyn-Schmiedeberg's Archives of Pharmacology, 2017)
“And” between values parts separate entries of the source, which are not always exact repeats. Identical values can stand only once.

Key:
rats [1] = assay: Open field (OF) test in rats, locomotor/exploratory activity; type: in vivo, rat; conditions: 2.5 mg/kg i.p. 30 min before test, 5-min session, mean ± SEM, 2.5 mg/kg
Experimental: All drugs were dissolved in distilled water immediately before administration in a volume of 2 mL/kg. All the compounds were administered intraperitoneally (i.p.). […] Control animals received vehicle according to the same schedule.
The experiment was performed using Motor Monitor System (Campden Instruments, Ltd., UK) consisted of two SmartFrame Open Field stations (40 × 40 × 38 cm) with 16 × 16 beams, located in sound attenuating chambers and connected to PC software by control chassis. Individual vehicle- or drug-injected animals were gently placed in the center of the station. An automated motor monitor system recorded ambulation (the number of crossings in X and Y axis), the number of rearing episodes, and total distance covered by a rat for 5 min.
The data of behavioral studies were evaluated using two-way analysis of variance (ANOVA) followed by Bonferroni’s post hoc test, p < 0.05 was considered significant.

[2] = Metabolic stability in rat liver microsomes (RLMs); type: in vitro ADME
Experimental: The in silico study was performed by MetaSite 5.1.1 provided by Molecular Discovery Ltd. The highest metabolism probability sites and the prediction of the structures of metabolites were analyzed during this study by liver computational model (Cruciani et al. [2005]).
Commercial, pooled, rat liver microsomes (RLMs) were purchased from Sigma-Aldrich (St. Louis, USA). The biotransformations were carried out using 1 mg/mL of RLMs in 200 μL of reaction buffer containing 0.1 M Tris-HCl (pH 7.4) and EMD386088 with final […] 50 μM. The reaction mixture was preincubated at 37 °C for 5 min and then, the reaction was initiated by adding 50 μL of NADPH Regeneration System (Promega, Madison, WI, USA). The reaction was terminated after 30 or 120 min by the addition of 200 μL of cold methanol. The mixture was next centrifuged at 14000 rpm for 15 min and the UPLC/MS analysis of the supernatant was performed. Mass spectra was recorded on UPLC/MS system consisted of a Waters Acquity UPLC (Waters, Milford, USA), coupled to a Waters TQD mass spectrometer (electrospray ionization mode ESI-tandem quadrupole).

recombinant human CYP2D6 = biological target: T1, recombinant human CYP2D6 (Homo sapiens, UniProt P10635); assay: Luminescent CYP2D6 P450-Glo assay; type: in vitro ADME; conditions: read-out: IC 50 CYP2D6
T1 construct: purchased Promega (Madison, WI, USA)
Experimental: (§1) The enzymatic reactions were performed in white polystyrene, flat-bottom Nunc™ MicroWell™ 96-Well Microplates (Thermo Scientific, Waltham, MA USA). The luminescence signal was measured with a microplate reader in luminescence mode (EnSpire, PerkinElmer, Waltham, MA USA).

recombinant human CYP3A4 = recombinant human CYP3A4 (Homo sapiens, UniProt P08684); conditions: recombinant human CYP3A4, P450-Glo, 0.025 to 25 μM
Experimental: as §1

rats [3] = system: rats; design: method as in Jastrzębska-Więsek et al. [2015]; conditions: EMD386088 alone 5 mg/kg i.p., ref Jastrzębska-Więsek et al. [2015]; cited from earlier work
α2-adrenoceptors = system: α2-adrenoceptors; design: method as in Jastrzębska-Więsek et al. [2013]; conditions: ref Jastrzębska-Więsek et al. [2013]; cited from earlier work
β1-adrenoceptors = system: β1-adrenoceptors; design: method as in Jastrzębska-Więsek et al. [2013]; conditions: ref Jastrzębska-Więsek et al. [2013]; cited from earlier work
dopamine D3 = system: dopamine D3; design: method as in Jastrzębska-Więsek et al. [2013]; conditions: ref Jastrzębska-Więsek et al. [2013]; cited from earlier work
GABAA = system: GABAA; design: method as in Jastrzębska-Więsek et al. [2013]; conditions: ref Jastrzębska-Więsek et al. [2013]; cited from earlier work
[4] = system: serotonin (5-HT) transporter; design: method as in Jastrzębska-Więsek et al. [2013]; conditions: ref Jastrzębska-Więsek et al. [2013]; cited from earlier work
[5] = system: dopamine transporter (DAT); design: method as in Jastrzębska-Więsek et al. [2016]; conditions: functional in vitro study; ref Jastrzębska-Więsek et al. [2016]; cited from earlier work
5-HT6 receptor = conditions: cited from earlier work

recombinant human CYP3A4, sequence (P08684 whole entry): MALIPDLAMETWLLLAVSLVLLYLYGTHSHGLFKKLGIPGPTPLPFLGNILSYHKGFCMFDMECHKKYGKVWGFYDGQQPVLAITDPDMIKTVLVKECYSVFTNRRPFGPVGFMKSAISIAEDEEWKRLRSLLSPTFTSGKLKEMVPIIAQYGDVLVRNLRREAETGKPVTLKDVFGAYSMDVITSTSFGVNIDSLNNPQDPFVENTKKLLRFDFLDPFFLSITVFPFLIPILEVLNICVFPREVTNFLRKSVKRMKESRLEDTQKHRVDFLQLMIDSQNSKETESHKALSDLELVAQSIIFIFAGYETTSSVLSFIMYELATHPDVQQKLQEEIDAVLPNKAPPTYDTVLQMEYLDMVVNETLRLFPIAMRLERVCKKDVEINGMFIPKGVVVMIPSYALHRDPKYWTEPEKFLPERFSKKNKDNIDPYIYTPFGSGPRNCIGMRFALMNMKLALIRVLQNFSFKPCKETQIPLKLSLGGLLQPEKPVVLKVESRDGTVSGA
T1 sequence (P10635 whole entry): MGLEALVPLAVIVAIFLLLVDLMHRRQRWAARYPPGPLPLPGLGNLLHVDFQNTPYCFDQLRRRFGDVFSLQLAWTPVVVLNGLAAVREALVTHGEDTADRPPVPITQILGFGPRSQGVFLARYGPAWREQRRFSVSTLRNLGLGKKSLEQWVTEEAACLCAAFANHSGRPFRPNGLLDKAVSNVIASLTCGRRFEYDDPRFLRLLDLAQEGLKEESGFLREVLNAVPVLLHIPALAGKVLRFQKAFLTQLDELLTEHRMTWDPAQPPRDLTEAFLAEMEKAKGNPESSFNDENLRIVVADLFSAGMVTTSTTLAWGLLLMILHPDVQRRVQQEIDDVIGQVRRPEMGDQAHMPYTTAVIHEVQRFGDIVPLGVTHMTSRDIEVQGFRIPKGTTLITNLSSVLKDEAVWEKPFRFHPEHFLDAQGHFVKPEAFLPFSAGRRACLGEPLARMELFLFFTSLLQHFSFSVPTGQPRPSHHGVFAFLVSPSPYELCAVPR

SMILES: Cc1[nH]c2ccc(Cl)cc2c1C1=CCNCC1.Cl [EMD386088, 5-chloro-2-methyl-3-(1,2,3,6-tetrahydro-4-pyridinyl)-1H-indole hydrochloride]
- Exploratory activity Ambulation X (rats [1]): 261 ± 29 and 262 ± 28 and 262 ± 35 and 263 ± 28
- Exploratory activity Ambulation Y (rats [1]): 261 ± 31 and 267 ± 37 and 262 ± 23
- Exploratory activity Rearings (rats [1]): 90 ± 3 and 91 ± 4 and 89 ± 4 and 92 ± 9
- Exploratory activity Total distance (cm) (rats [1]): 2677 ± 232 cm and 2721 ± 196 cm and 2644 ± 220 cm and 2722 ± 145 cm
- compound metabolized in the presence of RLMs ([2]; RLMs 1 mg/mL, EMD386088 50 μM, after 120 min, 37 °C): ~40%
- main metabolic pathway ([2]; in silico (MetaSite) and in vitro (RLMs) studies): dehydrogenation of tetrahydropyridine moiety
- IC50 (recombinant human CYP2D6): 2.25 µM
- influence on CYP3A4 activity (recombinant human CYP3A4): did not influence on CYP3A4 activity
- antidepressant-like effect in the FST (rats [3]): exerts an antidepressant-like effect
- affinity for α2-adrenoceptors (α2-adrenoceptors): no affinity
- affinity for β1-adrenoceptors (β1-adrenoceptors): no affinity
- affinity for dopamine D3 (dopamine D3): no affinity
- affinity for GABAA (GABAA): no affinity
- affinity for serotonin (5-HT) transporter [4]: no affinity
- affinity for dopamine transporter (DAT) [5]: significant affinity
- 5-HT6 receptor functional profile (5-HT6 receptor; in vitro, ref Jastrzębska-Więsek et al. [2013]): potent 5-HT6 receptor partial agonist
- EC50 (5-HT6 receptor; read-out: EC50 5-HT6 receptor agonist, ref Mattsson et al. ([2005])): 0.001 µM
